According to article PMC9788692 (2022):

Experiments:
Experiment in all cases: in-line probing
[1] = tested on: 95 Csp (RNA, riboswitch) GGAAUGCUUCCUCCGCCACCGGGCGGAGGGUGAAAAGCGUCCACGGUCUCCCGUAGGUACGGCGCGCUCUGCGCGUUACAAGGGAGCCGCGGGCG; details: 100 mM KCl, 20 mM MgCl2, 50 mM Tris-HCl pH 8.3 (23 °C), ~48 h
[2] = tested on: 95 Csp M2 (RNA, riboswitch) GGAAUGCUUCCUCCGCCACCGGGCGGAGGGUGAAAAGCGUCCACGGUCUCCCGUAGGAACGGCGCGCUCUGCGCGUUACAAGGGAGCCGCGGGCG; details: 100 mM KCl, 20 mM MgCl2; 50 mM Tris-HCl pH 8.3 (23 °C), ~48 h; highest concentration 10 mM; modulation almost eliminated
[3] = tested on: 81 Csp (RNA, riboswitch) GGAAUGCUUCCUCCGCCACCGGGCGGAGGGUGAAAAGCGUCCACGGUCUCCCGUAGGUACGGCGCGCUCUGCGCGUUACAA; details: 100 mM KCl, 20 mM MgCl2; 50 mM Tris-HCl pH 8.3 (23 °C), ~48 h; weaker than 95 Csp
[4] = tested on: 95 Dsu (RNA, riboswitch) GGAAACUCUUCCCUGUCACCGGAUAGGGAGCCAAGAGGGUUUAUUCCUGCUGCAGGUAAUAUGGCGAAAACCAUUGAAAGGCAGGAAUAAAUCCU; details: 100 mM KCl, 20 mM MgCl2; 50 mM Tris-HCl pH 8.3 (23 °C), ~48 h; highest concentration 10 mM
[5] = tested on: 105 Mja (RNA, riboswitch) GGAACACCGCUUCUGUCACCGGACAGGAGAAAUGGGGUGUCUGGGAGUUGUCGUAGGUACGGUAUGGUUGCAUGCUAUAAGACAAUUCCUGGGCACCCCUGUUUU; details: 100 mM KCl, 20 mM MgCl2; 50 mM Tris-HCl pH 8.3 (23 °C), ~48 h; highest concentration 10 mM
[6] = weaker than guanidine, data not shown
[7] = highest concentration not stated

SMILES	binding [1, 6]	binding [1, 7]	also measured
CNC(=N)N	weak		
N=C(N)N			binding ([1]; 0.61 µM-20 mM, no saturation, modulation above 1 mM): weak; binding [2]: weak; binding [3]: weak; binding [4]: no; binding [5]: no
N=C(N)NO	weak		

Further lines, with some results ahead:

binding [1, 6]	binding [1, 7]	SMILES	also measured
	no	N=C(N)NCCCCN	
	no	N=C(N)NCCC[C@H](N)C(=O)O	
	no	N=C(N)NOCC[C@H](N)C(=O)O	
